Laboratory results published in patent USRE40387E1, “Pharmaceutical compositions, dosage forms and methods for oral administration of epothilones” (Bristol-Myers Squibb Company, priority 2001, dated 2008).

What was measured:
[1] = target: T1, CYP3A4 (Homo sapiens, UniProt P08684); assay: Biotransformation of Compound (A) in human liver microsomes with specific CYP inhibitors; type: in vitro ADME
T1 construct: from tissue; host or cells: human liver microsomes

[2] = test system: rat liver microsomes; assay: Oxidative metabolism in rat liver microsomes; type: in vitro ADME; settings: 40 :M, NADPH
Method: (§1) Upon incubation of Compound (A) (40 :M) with mouse, rat, dog, and human liver microsomes fortified with nicotinamide adenine dinucleotide phosphate (NADPH), the rate of oxidative metabolism of Compound (A) was 2.1, 0.7, 1.2 and 1.3 nmol/min/mg protein, respectively. Moreover, the metabolite distribution was similar among all species (metabolite masses included several […] and M−2 compounds). Qualitatively, there appeared to be similar production of metabolites of Compound (A) after incubation with rat or human hepatocytes compared to microsomal incubations. Products similar to those arising from the chemical degradation of Compound (A) appeared to be the major products in the hepatocyte incubations.

[3] = test system: mouse liver microsomes; assay: Oxidative metabolism in mouse liver microsomes; type: in vitro ADME; settings: 40 :M, NADPH
Method: as §1

[4] = Single dose oral toxicity study in dogs; type: in vivo; settings: oral solution 0.4 mL/kg
Method: The mean (SD) [n=3] […] Although the oral formulation for both studies was identical, the total volume of the oral solution administered in the current study was about 1.3 mL/kg while that in the toxicology study was 0.4 mL/kg. […] Compound (A) is an acid labile drug, thus, the higher exposure after oral solution in the current study compared to the toxicology study is likely related to better protection from gastric acid degradation.

[5] = target: T2, CYP1A2 (Homo sapiens, UniProt P05177); assay: Inhibition of recombinant human CYP1A2 (deethylation of 3-cyano-7-ethoxycoumarin); type: in vitro ADME; settings: recombinant human CYP isoform
T2 sequence (P05177 1-516): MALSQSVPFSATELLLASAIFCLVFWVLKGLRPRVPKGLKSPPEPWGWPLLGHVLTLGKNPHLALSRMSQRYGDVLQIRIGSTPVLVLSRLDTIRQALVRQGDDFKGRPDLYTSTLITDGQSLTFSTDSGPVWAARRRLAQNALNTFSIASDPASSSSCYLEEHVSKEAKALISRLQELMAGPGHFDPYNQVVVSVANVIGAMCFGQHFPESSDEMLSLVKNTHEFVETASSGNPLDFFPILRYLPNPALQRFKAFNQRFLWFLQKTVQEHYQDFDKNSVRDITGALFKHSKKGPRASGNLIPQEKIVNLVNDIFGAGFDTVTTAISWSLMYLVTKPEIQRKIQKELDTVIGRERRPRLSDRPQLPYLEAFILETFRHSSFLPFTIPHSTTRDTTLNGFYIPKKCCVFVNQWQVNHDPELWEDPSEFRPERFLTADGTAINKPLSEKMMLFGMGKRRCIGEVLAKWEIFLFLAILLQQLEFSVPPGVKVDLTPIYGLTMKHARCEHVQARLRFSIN
Method: The ability of Compound (A) to inhibit the major human cytochrome P450s (CYPs) responsible for the metabolism of drugs was evaluated in vitro using recombinant human CYP isoforms. IC50 values for inhibition of deethylation of 3-cyano-7-ethoxycoumarin (CYP1A2, CYP2C9, CYP2C19, and CYP2D6) and for inhibition of dealkylation of benzoyl-resorufin (CYP3A4) were determined.

[6] = Stability of aqueous solution of Compound (A) (t95); type: physicochemical; settings: 37° C.
Method: Certain epothilones including the preferred epothilone, Compound (A), are unstable in acidic aqueous environments and decompose, presumably by an acid catalyzed hydrolytic opening of the epoxide ring. For example, the time for 5% drug loss (t95) at 37° C. for an aqueous solution of Compound (A) is approximately 38 minutes at pH 7.4 but only about 0.2 minutes at pH 2.5. Thus, when epothilones of Formula (Ia) or (Ib), or a pharmaceutically acceptable salt, solvate, clathrate, hydrate, or prodrug thereof, are orally administered they decompose in the stomach of the patient such that they are either minimally absorbed or not absorbed by the gastrointestinal tract.

[7] = Pharmacokinetics of oral and IV Compound A in cancer patients; type: in vivo
Method: Patients with advanced malignancies were administered Compound A weekly as a 30-minute infusion (a course=3 intravenous weekly administrations). […] Serial plasma sampling was obtained on day 6 and day 1 of course 1 to assess pharmacokinetics by an LC/MS/MS. The LC/MS/MS assay was the same as used in Example 1.
Following oral administration on day 6, 7 mL blood samples was collected into Becton Dickinson Vacutainer tubes with K3EDTA as anticoagulent (lavender-colored top) according to the following schedule (expressed as hours:minutes from the start of the oral administration): predose, 00:15, 00:30, 00:45, 01:00, 01:30, 02:00, 03:00, 04:00, 06:00, 08:00, 24:00, 48:00, and 72:00. Following IV administration on day 1, 7 mL blood samples were collected into Becton Dickinson Vacutainer tubes with K3EDTA as anticoagulent (lavender-colored top) according to the following schedule (expressed as hours:minutes from the start of the IV infusion): predose, 00:15, 00:30 (end-of infusion), 00:45, 01:00, 01:30, 02:00, 03:00, 04:00, 06:00, 08:00, 24:00, 48:00, and 72:00.
Immediately after blood collection, the Vacutainer tubes were inverted several times to ensure mixing with the anticoagulant and then immediately placed on crushed ice. Within 30 minutes of collection, samples were centrifuged for 5 minutes at approximately 2000×g and 0 to 5 EC 5° C. The plasma was then transferred to separate pre-labeled screw-capped polypropylene tubes and stored at −70 EC −70° C. until bioanalysis. Plasma concentrations of Compound A were analyzed using the LC/MS/MS assay described in Example 1.
The plasma concentration versus time data were analyzed using non-compartmental methods. The pharmacokinetic parameters determined for Compound A included the maximum observed plasma concentration (Cmax), time to reach Cmax (Tmax), area under the plasma concentration time curve from time zero to the time of last sampling time T(AUC (0−T)).

[8] = 20 mg/m^2, oral solution with buffer
[9] = 25 mg/m^2, oral solution with buffer
[10] = 305 mg/m^2 as printed, oral solution with buffer

T1 sequence (P08684 whole entry): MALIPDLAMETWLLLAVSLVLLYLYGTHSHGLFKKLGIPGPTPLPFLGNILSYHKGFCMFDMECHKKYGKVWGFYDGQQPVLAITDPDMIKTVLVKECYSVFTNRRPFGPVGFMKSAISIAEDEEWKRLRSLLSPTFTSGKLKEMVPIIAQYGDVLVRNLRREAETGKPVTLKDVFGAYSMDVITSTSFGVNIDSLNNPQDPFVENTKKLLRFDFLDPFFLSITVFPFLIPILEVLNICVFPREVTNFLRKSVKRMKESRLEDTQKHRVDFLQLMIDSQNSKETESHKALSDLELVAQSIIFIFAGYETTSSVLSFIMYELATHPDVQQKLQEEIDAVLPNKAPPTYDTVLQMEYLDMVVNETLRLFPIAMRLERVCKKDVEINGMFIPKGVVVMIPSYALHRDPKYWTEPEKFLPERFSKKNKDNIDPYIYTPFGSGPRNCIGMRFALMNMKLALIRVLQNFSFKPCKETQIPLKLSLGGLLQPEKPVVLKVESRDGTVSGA

Structure (SMILES): C/C(=C\c1csc(C)n1)[C@@H]1C[C@@H]2O[C@]2(C)CCC[C@H](C)[C@H](O)[C@@H](C)C(=O)C(C)(C)[C@@H](O)CC(=O)N1 (relative stereo) [Compound (A), [1S-[1R*,3R*(E),7R*,10S*,11R*,12R*,16S*]]-7,11-dihydroxy 8,8,10,12,16-pentamethyl-3-[1-methyl-2-(2-methyl-4-thiazolyl)ethenyl-4-aza-17-oxobicyclo[14.1.0]heptadecane-5,9-dione]
- cytochrome P450 responsible for metabolism [1]: may be a substrate for CYP3A4
- rate of oxidative metabolism [2]: 0.7 nmol/min/mg protein
- rate of oxidative metabolism [3]: 2.1 nmol/min/mg protein
- dose-normalized mean AUC [4]: 257 ng·h/mL
- inhibition of CYP1A2 [5]: did not inhibit
- time for 5% drug loss (t95) ([6]; pH 2.5): about 0.2 minutes
- time for 5% drug loss (t95) ([6]; pH 7.4): approximately 38 minutes
- AUC(0-T), mean ([7]; 20 mg/m^2, IV): 796 ng·h/mL
- TMAX, median ([7]; 20 mg/m^2, IV): 15 min
- CMAX, mean ([7]; 20 mg/m^2, IV, N 3): 251 ng/mL
- % F, mean [7, 8]: 43.5%
- AUC(0-T), mean [7, 8]: 404 ng·h/mL
- TMAX, median [7, 8]: 60 min
- CMAX, mean ([7]; 20 mg/m^2, oral solution with buffer, N 3): 142 ng/mL
- AUC(0-T), mean ([7]; 25 mg/m^2, IV): 848 ng·h/mL
- TMAX, median ([7]; 25 mg/m^2, IV): 30 min
- CMAX, mean ([7]; 25 mg/m^2, IV, N 11): 447 ng/mL
- % F, mean [7, 9]: 55.6%
- AUC(0-T), mean [7, 9]: 533 ng·h/mL
- TMAX, median [7, 9]: 30 min
- CMAX, mean ([7]; 25 mg/m^2, oral solution with buffer, N 11): 180 ng/mL
- AUC(0-T), mean ([7]; 305 mg/m^2 as printed, IV): 1155 ng·h/mL
- TMAX, median ([7]; 305 mg/m^2 as printed, IV): 30 min
- CMAX, mean ([7]; 305 mg/m^2 as printed, IV, N 4): 711 ng/mL
- % F, mean [7, 10]: 62.2%
- AUC(0-T), mean [7, 10]: 708 ng·h/mL
- TMAX, median [7, 10]: 30 min
- CMAX, mean ([7]; 305 mg/m^2 as printed, oral solution with buffer, N 4): 274 ng/mL
